Experimental findings from paper PMC10331789 (Journal of natural products, 2023) are described below.

This assay concerns the target Na+/K+-ATPase (NKA). Put plainly: luminescent ADP detection assay. The class given is biochemical, Sus scrofa.

As for `CO[C@H]1C[C@H](O[C@H]2CC[C@@]3(C)[C@@H](C2)C[C@@H]2O[C@]24[C@@H]3[C@H](O)C(=O)[C@]2(C)[C@@H](C3=CC(=O)OC3)CC[C@]42O)O[C@@H](C)[C@@H]1O` [compound 1, (–)-cryptanoside A], the IC50 worked out at 1200 nM.
